Here are results for 20 compounds from patent US20090181948A1, “DIAMINE DERIVATIVE” (KYOWA HAKKO KOGYO CO., LTD., priority 2005, published 2009).

In data set [1] the target is T1, histamine H3 receptor (Rattus norvegicus, UniProt Q9QYN8).
T1 construct: from tissue; host or cells: rat striatum (Sprague-Dawley, male, 6 weeks), membrane homogenate
Briefly: Histamine H3 receptor binding assay ([3H]-Nα-methylhistamine binding to rat striatum homogenate). Conditions: 1 μmol/L test compound; [3H]-Nα-methylhistamine 1 nmol/L; striata of Sprague-Dawley male rats, 25° C., 1 hour; read-out: Inhibition ratio of [3H]-Nα-methylhistamine binding. The method, boiled down: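 Rat striatum membranes (20 μg protein) incubated with [3H]-Nα-methylhistamine 1 nmol/L in 50 mmol/L Tris/HCl pH 7.4, 5 mmol/L EDTA, 1 hour at 25° C; bound ligand by filtration and scintillation counting. Nonspecific binding defined with 10 μmol/L thioperamide; % inhibition reported at 1 μmol/L compound.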

Data set [2] has as its target T1, histamine H3 receptor. Briefly: Inhibitory effect on histamine release suppressive action of histamine H3 receptor agonist (Nα-methylhistamine) in rat forebrain synaptosomes. The data set is classed as biochemical. The note with it: 1 μmol/L test compound and 1 μmol/L Nα-methylhistamine, potassium 30 mmol/L stimulation, read-out: Inhibition ratio of the [3H]-histamine release suppressive action of Nα-methylhistamine. As for the experimental part:
To the forebrains of Sprague-Dawley male rats (6 to 8 weeks of age), a 30-fold volume of a 0.32 mol/L aqueous sucrose solution was added and the forebrains were homogenized. The resulting homogenate was centrifuged (1,000×g, 4° C., 10 min), and to the obtained supernatant, an equivalent volume of Krebs-Ringer solution [120 mmol/L sodium chloride, 0.8 mmol/L potassium chloride, 2.6 mmol/L calcium chloride, 0.67 mmol/L magnesium sulfate, 1.2 mmol/L potassium dihydrogen phosphate, 27.5 mmol/L sodium bicarbonate, 10 mmol/L glucose (pH 7.3)] was added, and the resulting mixture was centrifuged (10,000×g, 4° C., 15 min). To the obtained precipitate, a 15-fold volume of Krebs-Ringer solution was added to suspend the precipitate. Then, the concentration of protein in the resulting tissue homogenate (synaptosomes) was measured and used for a test.
To the synaptosomes (300 μg in terms of protein amount) prepared by the above-described method, a [^3H]-histidine solution [final concentration: […] (740 kBq)/mL]: 6 μl of a 37 MBq/mL (specific activity: […]) solution] was added, and the total volume was adjusted to 300 μL with Krebs-Ringer solution. Then, the resulting mixture was incubated at 37° C. for 30 minutes and centrifuged (10,000×g, 25° C., 3 min). To the resulting precipitate (synaptosomes), 300 μL of Krebs-Ringer solution was added, and the mixture was incubated at 37° C. for 5 minutes and centrifuged (10,000×g, 25° C., 3 min). This procedure was repeated 5 times, whereby washing of synaptosomes was carried out. The resulting synaptosomes were suspended in 100 μL of Krebs-Ringer solution, and the resulting suspension was used for the following procedure.
A test compound and N^α-methylhistamine were separately dissolved in Krebs-Ringer solution to give a concentration of 20 μmol/L (the resulting mixtures were referred to as a test compound solution and a N^α-methylhistamine solution, respectively). To 100 μL of the above-described suspended synaptosomes (300 μg in terms of protein amount), 140 μL of Krebs-Ringer solution was added. Then, 30 μL of the test compound solution and 30 μL of the N^α-methylhistamine solution were added thereto, and the resulting mixture was incubated at 37° C. for 2 minutes. Then, an equivalent volume of a stimulating solution [64 mmol/L sodium chloride, 56.8 mmol/L potassium chloride, 2.6 mmol/L calcium chloride, 0.67 mmol/L magnesium sulfate, 1.2 mmol/L potassium dihydrogen phosphate, 27.5 mmol/L sodium bicarbonate, 10 mmol/L glucose (pH 7.3)] (final potassium concentration: 30 mmol/L) was added, and the resulting mixture was incubated at 37° C. for 2 minutes to release [^3H]-histamine. The reaction mixture was centrifuged (10,000×g, 25° C., 3 min), and the obtained supernatant was passed through Amberlite CG-50 column (250 μL), and the non-adsorbed fractions were discarded. Then, 2 mL of 50 mmol/L [[…]]/hydrochloric acid (HCl) (pH 7.5) (Tris) was passed through the column 3 times, and 2 mL of distilled water, and 1.5 mL of a 0.2 mol/L aqueous sodium hydroxide solution were passed through the column in this order, and the eluted fractions were discarded. Then, 2 mL of a 0.2 mol/L aqueous sodium hydroxide solution was passed through the column, and the eluted fraction was recovered in a scintillation vial. Then, 8 mL of Ultimagold (Perkin Elmer) was added to the recovered eluted solution, and the radioactivity ([^3H]-histamine) was measured using a liquid scintillation counter. The inhibitory action of the test compound on the histamine release suppressive action of N^α-methylhistamine was evaluated by obtaining the inhibition ratio to the histamine release suppressive action in the presence of 1 μmol/L No-methylhistamine and 1 μmol/L of the test compound. The inhibition ratio of the [^3H]-histamine release suppressive action was calculated using the following Equation (2). […]

T1 sequence (Q9QYN8 whole entry): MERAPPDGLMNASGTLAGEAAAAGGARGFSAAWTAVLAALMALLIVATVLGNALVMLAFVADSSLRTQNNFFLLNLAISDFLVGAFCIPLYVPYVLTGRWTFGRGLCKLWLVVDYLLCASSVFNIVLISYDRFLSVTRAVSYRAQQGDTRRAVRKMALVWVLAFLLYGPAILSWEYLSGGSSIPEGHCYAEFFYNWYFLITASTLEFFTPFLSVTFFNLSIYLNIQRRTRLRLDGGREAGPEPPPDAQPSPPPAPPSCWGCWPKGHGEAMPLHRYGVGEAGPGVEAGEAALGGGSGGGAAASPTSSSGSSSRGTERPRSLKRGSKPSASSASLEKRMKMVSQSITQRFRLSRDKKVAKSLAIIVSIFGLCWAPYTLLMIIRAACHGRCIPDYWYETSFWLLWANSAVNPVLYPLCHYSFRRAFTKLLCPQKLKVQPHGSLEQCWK

In turn, `CC(C)N1CCC(N(C)C(=C(C#N)C#N)N2CCC(N3CCCCC3)CC2)CC1` [Compound 176, {[N-(1-isopropylpiperidin-4-yl)-N-methylamino](4-piperidinopiperidino)methylene}malononitrile] yielded a melting point of 129 to 130 °C. The inhibition at 1 µM on histamine H3 receptor [1] is at least 80%. For the same compound, at histamine H3 receptor [2], the inhibition at 1 µM was at least 70%.
With `CC1CCCN1CCCN1CCN(CCCN2CCCC2C)C1=C(C#N)C#N` (stereo not shown) [Compound 65, {1,3-Bis[3-(2-methylpyrrolidin-1-yl)propyl]imidazolidin-2-ylidene}malononitrile], the melting point was 89 to 93 °C. The inhibition at 1 µM at histamine H3 receptor [1] is at least 80%. On histamine H3 receptor [2], the inhibition at 1 µM was at least 70%.
For `N#CC(C#N)=C(NCCN1CCCCC1)N1CCC(N2CCCCC2)CC1` [Compound 143, [(2-Piperidinoethylamino)(4-piperidinopiperidino)methylene]malononitrile] the same measures were 198 to 200 °C, at least 80% and at least 70%.
On the same counts, the results for `C[C@@H]1CCCN1CCN1CCN(CCN2CCC[C@H]2C)C1=C(C#N)C#N` [Compound 189, {1,3-Bis[2-((R)-2-methylpyrrolidin-1-yl)ethyl]imidazolidin-2-ylidene}malononitrile] are 139 to 141 °C, at least 80% and at least 70%.
`C[C@@H]1CCCN1CCN1CCN(CCCN2CCCCC2)C1=C(C#N)C#N` [Compound 193, {1-[2-((R)-2-methylpyrrolidin-1-yl)ethyl]-3-(3-piperidinopropyl)imidazolidin-2-ylidene}malononitrile] showed a melting point of 89 to 90 °C. The inhibition at 1 µM on histamine H3 receptor [1] is at least 80%. The inhibition at 1 µM on histamine H3 receptor [2] is at least 70%.
The compound `CC(C)N1CCC(N2CCN(CCCN3C[C@@H](C)O[C@@H](C)C3)C2=C(C#N)C#N)CC1` [Compound 234, {3-[3-(Cis-2,6-dimethylmorpholino)propyl]-1-(1-isopropylpiperidin-4-yl)imidazolidin-2-ylidene}malononitrile] registered a melting point of 117 to 118 °C. For the same compound, the inhibition at 1 µM at histamine H3 receptor [1] was at least 80%. Further, the inhibition at 1 µM at histamine H3 receptor [2] was at least 70%.
On the same counts, the results for `CN(CCCN1CCCCC1)C(=C(C#N)C#N)N1CCC(N2CCCC2)CC1` [Compound 159, {[N-methyl-N-(3-piperidinopropyl)amino][4-(pyrrolidin-1-yl)piperidino]methylene}malononitrile] are 116 to 117 °C, at least 80% and at least 70%.
On to `CC1CCCN1CCCN1CCN(CCCN2CCCCC2)C1=C(C#N)C#N` (stereo not shown) [Compound 103, {1-[3-(2-Methylpyrrolidin-1-yl)propyl]-3-(3-piperidinopropyl)imidazolidin-2-ylidene}malononitrile], for which the inhibition at 1 µM is at least 80% at histamine H3 receptor [1] and at least 70% at histamine H3 receptor [2].
For `CC(C)N1CCC(N(C)C(=C(C#N)C#N)N2CCC(CN3CCCC3C)CC2)CC1` (stereo not shown) [Compound 181, {[N-(1-isopropylpiperidin-4-yl)-N-methylamino][4-(2-methylpyrrolidin-1-ylmethyl)piperidino]methylene}malononitrile], the melting point was in the range of 138 to 140 °C. Besides, at histamine H3 receptor [1], the inhibition at 1 µM was at least 80%. For the same compound, the inhibition at 1 µM on histamine H3 receptor [2] was at least 70%.
For `CN(CCN1CCCCC1)C(=C(C#N)C#N)N1CCC(N2CCCCC2)CC1` [Compound 144, {[Methyl(2-piperidinoethyl)amino](4-piperidinopiperidino)methylene}malononitrile] the same measures were 109 to 111 °C, at least 80% and at least 70%.
`CC1CCCN1CCCN1C(=C(C#N)C#N)N(CCCN2CCCC2C)c2ccccc21` (stereo not shown) [Compound 124, {1,3-Bis[3-(2-methylpyrrolidin-1-yl)propyl]benzimidazolidin-2-ylidene}malononitrile]: the inhibition at 1 µM on histamine H3 receptor [1] is at least 80%; on histamine H3 receptor [2], at least 70%.
For `CC(C)N1CCC(NC(=C(C#N)C#N)N2CCC(N3CCCCC3)CC2)CC1` [Compound 175, [(1-Isopropylpiperidin-4-ylamino)(4-piperidinopiperidino)methylene]malononitrile], the inhibition at 1 µM is at least 80% on histamine H3 receptor [1] and at least 70% at histamine H3 receptor [2].
On to `N#CC(C#N)=C1N(CCCCN2CCCCC2)CCN1CCN1CCCCC1` [Compound 7, [1-(4-Piperidinobutyl)-3-(2-piperidinoethyl)imidazolidin-2-ylidene]malononitrile], for which the inhibition at 1 µM was at least 80% at histamine H3 receptor [1] and at least 70% on histamine H3 receptor [2].
As to `N#CC(C#N)=C1N(CCCN2CCCCC2)CCN1CCN1CCCCCC1` [Compound 47, {1-[2-(Azepan-1-yl)ethyl]-3-(3-piperidinopropyl)imidazolidin-2-ylidene}malononitrile], the inhibition at 1 µM on histamine H3 receptor [1] was at least 80%; at histamine H3 receptor [2], at least 70%.
For `C[C@H]1CCCN1CCN1CCN(CCN2CCC[C@@H]2C)C1=C(C#N)C#N` [Compound 188, {1,3-Bis[2-((S)-2-methylpyrrolidin-1-yl)ethyl]imidazolidin-2-ylidene}malononitrile] the same measures were at least 80% and at least 70%.
For the compound `CC(C)N1CCC(N2CCN(CCCN3CCCCC3)C2=C(C#N)C#N)CC1` [Compound 130, [1-(1-Isopropylpiperidin-4-yl)-3-(3-piperidinopropyl)imidazolidin-2-ylidene]malononitrile], the inhibition at 1 µM on histamine H3 receptor [1] was at least 80%; at histamine H3 receptor [2] it was at least 70%.
Take `CC1CCCN1CCN1CCN(CCN2CCCC2C)C1=C(C#N)C#N` (stereo not shown) [Compound 6, {1,3-Bis[2-(2-methylpyrrolidin-1-yl)ethyl]imidazolidin-2-ylidene}malononitrile]: the inhibition at 1 µM at histamine H3 receptor [1] is at least 80%; at histamine H3 receptor [2], at least 70%.
On the same counts, the results for `CC(C)N1CCC(N2CCN(CCCN3CCOCC3)C2=C(C#N)C#N)CC1` [Compound 216, [1-(1-Isopropylpiperidin-4-yl)-3-(3-morpholinopropyl)imidazolidin-2-ylidene]malononitrile] are at least 80% and at least 70%.
For `CC1CCCCN1CCCN1CCN(CCCN2CCCC2C)C1=C(C#N)C#N` (stereo not shown) [Compound 111, {1-[3-(2-Methylpiperidino)propyl]-3-[3-(2-methylpyrrolidin-1-yl)propyl]imidazolidin-2-ylidene}malononitrile] the same measures were at least 80% and at least 70%.
For `CC(C)N1CCC(N2CCN(CCN3CCC[C@H]3C)C2=C(C#N)C#N)CC1` [Compound 213, {1-(1-Isopropylpiperidin-4-yl)-3-[2-((R)-2-methylpyrrolidin-1-yl)ethyl]imidazolidin-2-ylidene}malononitrile] the same measures were at least 80% and at least 70%.
